Assay results taken from ChEMBL document CHEMBL4385621, “Synthesis and in vitro cytotoxicity evaluation of β-carboline-combretastatin carboxamides as apoptosis inducing agents: DNA intercalation and topoisomerase-II inhibition” (Bioorg Med Chem, 2019).
Active and inactive are the calls of the source. The calls are words filed in the database; no cut-off is given here.

What was measured:
[1] = tested on: HeLa; test: Antiproliferative activity against human HeLa cells assessed as reduction in cell viability after 48 hrs by SRB assay; format: functional, cell-based
[2] = tested on: DU-145; test: Antiproliferative activity against human DU145 cells assessed as reduction in cell viability after 48 hrs by SRB assay; format: functional, cell-based; settings: DU-145, 48 h
[3] = tested on: A549; test: Antiproliferative activity against human A549 cells assessed as reduction in cell viability after 48 hrs by SRB assay; format: functional, cell-based; settings: A549, 48 h
[4] = target: DNA topoisomerase II (Homo sapiens) (UniProt P11388+Q02880); test: Inhibition of human topoisomerase-2 assessed as reduction in decatenation of kDNA at 10 uM incubated for 30 mins by ethidium bromide staining based agarose gel electrophoresis method; format: protein assay
[5] = tested on: Calf thymus DNA; test: Binding affinity to calf thymus DNA assessed as dissociation constant after 5 mins by UV-Visible spectroscopic method; format: nucleic-acid assay, Bos taurus
[6] = tested on: Calf thymus DNA; test: Binding affinity to calf thymus DNA assessed as decrease in emission peak intensity by spectrofluorimetric method; format: nucleic-acid assay; settings: Bos taurus
[7] = tested on: Calf thymus DNA; test: Binding affinity to calf thymus DNA assessed as decrease in emission peak intensity using varying DNA level by spectrofluorimetric method; format: nucleic-acid assay; settings: Bos taurus
[8] = tested on: Calf thymus DNA; test: Binding affinity to calf thymus DNA assessed as hypochromicity after 5 mins by UV-Vis absorption spectral analysis; format: nucleic-acid assay; settings: Bos taurus
[9] = tested on: Calf thymus DNA; test: Binding affinity to calf thymus DNA by circular dichroism spectropolarimetric analysis; format: nucleic-acid assay; settings: Bos taurus

SMILES	IC50 [1] [µM]	IC50 [2] [µM]	IC50 [3] [µM]	inhibition [4]	Kd [5] [µM]	Activity [6]	Activity [7]	Activity [8]	Activity [9]
COc1ccc(/C=C(/C(=O)NCc2cc3c([nH]c4ccccc43)c(-c3cc(OC)c(OC)c(OC)c3)n2)c2cc(OC)c(OC)c(OC)c2)cc1	19.5	6.67	2.23	–	–	–	–	–	–
COc1cc(/C=C(/C(=O)NCc2cc3c([nH]c4ccccc43)c(-c3cc(OC)c(OC)c(OC)c3)n2)c2cc(OC)c(OC)c(OC)c2)ccc1O	40.7	13.3	5.27	–	–	–	–	–	–
COc1ccc(-c2nc(CNC(=O)/C(=C/c3ccc(OC)c(OC(C)=O)c3)c3cc(OC)c(OC)c(OC)c3)cc3c2[nH]c2ccccc23)cc1	8.41	3.54	2.75	–	–	–	–	–	–
COc1cc(/C=C(/C(=O)NCc2cc3c([nH]c4ccccc43)c(-c3cc(OC)c(OC)c(OC)c3)n2)c2cc(OC)c(OC)c(OC)c2)cc(OC)c1	29.9	11.1	3.38	–	–	–	–	–	–
COc1cc(/C(=C\c2ccc(C(F)(F)F)cc2)C(=O)NCc2cc3c([nH]c4ccccc43)c(-c3cc(OC)c(OC)c(OC)c3)n2)cc(OC)c1OC	14.7	2.04	1.11	–	–	–	–	–	–
COc1ccc(-c2nc(CNC(=O)/C(=C/c3ccc(O)c(OC)c3)c3cc(OC)c(OC)c(OC)c3)cc3c2[nH]c2ccccc23)cc1	6.31	2.81	1.79	–	–	–	–	–	–
COc1cc(/C=C(/C(=O)NCc2cc3c([nH]c4ccccc43)c(-c3cccc(F)c3)n2)c2cc(OC)c(OC)c(OC)c2)cc(OC)c1	17.2	2.57	1.99	–	–	–	–	–	–
COc1ccc2c(c1)[nH]c1c(C)nccc12 [HARMINE]	9.66	9.63	5.89	–	–	–	–	–	–
COc1cc(/C=C(/C(=O)NCc2cc3c([nH]c4ccccc43)c(-c3cc(OC)c(OC)c(OC)c3)n2)c2cc(OC)c(OC)c(OC)c2)cc(OC)c1OC	36.4	15.7	10.6	–	–	–	–	–	–
COc1ccc(-c2nc(CNC(=O)/C(=C/c3ccc(C(F)(F)F)cc3)c3cc(OC)c(OC)c(OC)c3)cc3c2[nH]c2ccccc23)cc1	3.16	1.37	1.17	Active	112	Active	Active	Active	Active
COc1ccc(/C=C(/C(=O)NCc2cc3c([nH]c4ccccc43)c(-c3cc(OC)c(OC)c(OC)c3)n2)c2cc(OC)c(OC)c(OC)c2)cc1O	23.1	7.88	7.55	–	–	–	–	–	–
COc1cc(/C(=C\c2ccc(C)cc2)C(=O)NCc2cc3c([nH]c4ccccc43)c(-c3cccc(F)c3)n2)cc(OC)c1OC	14	1.81	1.31	–	–	–	–	–	–
COc1cc(/C=C(/C(=O)NCc2cc3c([nH]c4ccccc43)c(-c3cccc(F)c3)n2)c2cc(OC)c(OC)c(OC)c2)ccc1OC(C)=O	26.1	11.7	14.2	–	–	–	–	–	–
COc1ccc(-c2nc(CNC(=O)/C(=C/c3ccc(C)cc3)c3cc(OC)c(OC)c(OC)c3)cc3c2[nH]c2ccccc23)cc1	14.5	2.57	1.38	–	–	–	–	–	–
COc1cc(/C=C(/C(=O)NCc2cc3c([nH]c4ccccc43)c(-c3cc(OC)c(OC)c(OC)c3)n2)c2cc(OC)c(OC)c(OC)c2)ccc1OC(C)=O	50.1	8.35	7.08	–	–	–	–	–	–
CCOc1ccccc1/C=C(/C(=O)NCc1cc2c([nH]c3ccccc32)c(-c2cccc(F)c2)n1)c1cc(OC)c(OC)c(OC)c1	14	2.18	2.95	–	–	–	–	–	–
COc1cc(/C(=C\c2ccc(Cl)cc2)C(=O)NCc2cc3c([nH]c4ccccc43)c(-c3cccc(F)c3)n2)cc(OC)c1OC	31.3	8.44	22.2	–	–	–	–	–	–
COc1cc(/C(=C\c2ccc(Cl)cc2)C(=O)NCc2cc3c([nH]c4ccccc43)c(-c3cc(OC)c(OC)c(OC)c3)n2)cc(OC)c1OC	17.6	8.1	6.59	–	–	–	–	–	–

SMILES	IC50 [1] [µM]	IC50 [2] [µM]	IC50 [3] [µM]	inhibition [4]	Kd [5] [µM]	Activity [6]	Activity [7]	Activity [8]	Activity [9]
COc1cc(/C(=C\c2ccc(C)cc2)C(=O)NCc2cc3c([nH]c4ccccc43)c(-c3cc(OC)c(OC)c(OC)c3)n2)cc(OC)c1OC	4.46	2.63	1.12	–	–	–	–	–	–
COc1cc([C@@H]2c3cc4c(cc3[C@@H](O[C@@H]3O[C@@H]5CO[C@@H](C)O[C@H]5[C@H](O)[C@H]3O)[C@H]3COC(=O)[C@H]23)OCO4)cc(OC)c1O [ETOPOSIDE]	2.66	2.47	2.17	–	–	–	–	–	–
COc1ccc(/C=C(/C(=O)NCc2cc3c([nH]c4ccccc43)c(-c3cc(OC)c(OC)c(OC)c3)n2)c2cc(OC)c(OC)c(OC)c2)cc1OC(C)=O	18	7.06	1.16	–	–	–	–	–	–
COc1cc(/C(=C\c2cccc(F)c2)C(=O)NCc2cc3c([nH]c4ccccc43)c(-c3cccc(F)c3)n2)cc(OC)c1OC	19.7	3.89	2.88	–	–	–	–	–	–
COc1ccc(/C=C(/C(=O)NCc2cc3c([nH]c4ccccc43)c(-c3cccc(F)c3)n2)c2cc(OC)c(OC)c(OC)c2)cc1	39.5	12.6	12.9	–	–	–	–	–	–
COc1ccc(-c2nc(CNC(=O)/C(=C/c3ccc(OC)c(O)c3)c3cc(OC)c(OC)c(OC)c3)cc3c2[nH]c2ccccc23)cc1	18	10.2	3.09	–	–	–	–	–	–
COc1ccc(-c2nc(CNC(=O)/C(=C/c3ccc(Cl)cc3)c3cc(OC)c(OC)c(OC)c3)cc3c2[nH]c2ccccc23)cc1	37.5	13	9.65	–	–	–	–	–	–
CCOc1ccccc1/C=C(/C(=O)NCc1cc2c([nH]c3ccccc32)c(-c2cc(OC)c(OC)c(OC)c2)n1)c1cc(OC)c(OC)c(OC)c1	18.2	16.1	18.4	–	–	–	–	–	–
COc1ccc(-c2nc(CNC(=O)/C(=C/c3cccc(F)c3)c3cc(OC)c(OC)c(OC)c3)cc3c2[nH]c2ccccc23)cc1	27.6	4.07	3.54	–	–	–	–	–	–
COc1cc(/C(=C\c2cccc(F)c2)C(=O)NCc2cc3c([nH]c4ccccc43)c(-c3cc(OC)c(OC)c(OC)c3)n2)cc(OC)c1OC	42.2	15.8	2.08	–	–	–	–	–	–
COc1ccc(/C=C(/C(=O)NCc2cc3c([nH]c4ccccc43)c(-c3cccc(F)c3)n2)c2cc(OC)c(OC)c(OC)c2)cc1OC(C)=O	13.6	2.46	3.07	–	–	–	–	–	–
COc1ccc(-c2nc(CNC(=O)/C(=C/c3ccc(OC(C)=O)c(OC)c3)c3cc(OC)c(OC)c(OC)c3)cc3c2[nH]c2ccccc23)cc1	11.9	9.78	5.49	–	–	–	–	–	–
CCOc1ccccc1/C=C(/C(=O)NCc1cc2c([nH]c3ccccc32)c(-c2ccc(OC)cc2)n1)c1cc(OC)c(OC)c(OC)c1	16.3	10.9	11.7	–	–	–	–	–	–
COc1cc(/C=C(/C(=O)NCc2cc3c([nH]c4ccccc43)c(-c3cccc(F)c3)n2)c2cc(OC)c(OC)c(OC)c2)ccc1O	19.1	2.44	2.55	–	–	–	–	–	–
COc1ccc(/C=C(/C(=O)NCc2cc3c([nH]c4ccccc43)c(-c3cccc(F)c3)n2)c2cc(OC)c(OC)c(OC)c2)cc1O	9.68	1.87	1.62	–	–	–	–	–	–
COc1cc(/C=C(/C(=O)NCc2cc3c([nH]c4ccccc43)c(-c3cccc(F)c3)n2)c2cc(OC)c(OC)c(OC)c2)cc(OC)c1OC	23.8	9.84	12.3	–	–	–	–	–	–
COc1ccc(-c2nc(CNC(=O)/C(=C/c3cc(OC)cc(OC)c3)c3cc(OC)c(OC)c(OC)c3)cc3c2[nH]c2ccccc23)cc1	21.7	3.09	2.76	–	–	–	–	–	–
